# Measured values as given in PMC10269871, “Small Molecule Inhibition of an Exopolysaccharide Modification Enzyme is a Viable Strategy To Block Pseudomonas aeruginosa Pel Biofilm Formation” (Microbiology Spectrum, 2023).
# Target: T1, PelA (Pseudomonas aeruginosa, UniProt Q9HZE4)
# T1 construct: PelAΔ46Chis6, residues 47 to 948, C-terminal His6
# Assay: fluorogenic AMMU esterase assay with purified PelA, Michaelis-Menten global noncompetitive fit (IC50 […]); reversible by gel filtration
# Assay type: biochemical
# T1 sequence (Q9HZE4 entry or part of it): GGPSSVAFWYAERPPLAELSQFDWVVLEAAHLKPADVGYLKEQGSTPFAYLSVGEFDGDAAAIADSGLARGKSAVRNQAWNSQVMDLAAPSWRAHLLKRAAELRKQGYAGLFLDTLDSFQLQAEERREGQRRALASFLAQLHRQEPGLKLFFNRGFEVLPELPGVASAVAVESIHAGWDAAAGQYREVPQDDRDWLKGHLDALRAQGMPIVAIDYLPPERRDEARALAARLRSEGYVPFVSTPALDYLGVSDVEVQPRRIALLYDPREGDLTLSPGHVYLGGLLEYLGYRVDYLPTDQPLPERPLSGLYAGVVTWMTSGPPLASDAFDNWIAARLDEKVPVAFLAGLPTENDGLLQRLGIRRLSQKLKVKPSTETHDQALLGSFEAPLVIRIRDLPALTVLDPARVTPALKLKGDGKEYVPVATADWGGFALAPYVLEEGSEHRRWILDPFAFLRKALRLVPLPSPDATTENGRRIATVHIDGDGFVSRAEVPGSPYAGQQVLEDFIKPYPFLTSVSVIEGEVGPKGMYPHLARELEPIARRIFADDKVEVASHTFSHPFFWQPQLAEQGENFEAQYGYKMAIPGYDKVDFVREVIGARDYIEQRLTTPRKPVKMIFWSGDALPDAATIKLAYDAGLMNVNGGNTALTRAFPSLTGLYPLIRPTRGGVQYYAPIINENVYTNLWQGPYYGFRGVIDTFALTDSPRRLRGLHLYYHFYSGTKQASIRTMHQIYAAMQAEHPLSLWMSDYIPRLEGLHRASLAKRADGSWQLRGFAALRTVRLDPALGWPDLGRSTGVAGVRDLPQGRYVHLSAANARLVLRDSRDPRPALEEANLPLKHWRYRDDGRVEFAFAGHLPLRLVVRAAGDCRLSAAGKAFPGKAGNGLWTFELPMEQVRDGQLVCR
structure (smiles),measurement,value
"CSC(=S)N/N=C/c1ccccn1 [SK-017154-O, methyl 2-(2-pyridinylmethylene) hydrazinecarbodithioate]",Ki,1130 ± 30 nM
